Active and inactive are the calls of the source. How the calls were made is not given here.
Tested on: rodent lifetime carcinogenesis bioassay, tumor incidence TD50
Assay: chronic cancer bioassays in animals – CPDB, compiled studies (AID 1745844)

With CN(N=O)C(N)=O the TD50 (monkey, strain Cynomolgus [Macaca fascicularis], both sexes, in feed, site: any site (literature study), lesion: benign tumor, dosed 928 weeks, study length 1135 weeks) was 19.1 mg/kg/day, the TD50 (monkey, strain Cynomolgus [Macaca fascicularis], both sexes, in feed, site: any site (literature study), lesion: malignant tumor, dosed 928 weeks, study length 1135 weeks) was 4 mg/kg/day and the TD50 (monkey, strain Cynomolgus [Macaca fascicularis], both sexes, in feed, site: any site (literature study), lesion: several types, types named in the paper, dosed 928 weeks, study length 1135 weeks) was 2.64 mg/kg/day. The TD50 (monkey, strain Cynomolgus [Macaca fascicularis], both sexes, in feed, site: colon, lesion: leiomyosarcoma, dosed 928 weeks, study length 1135 weeks) was 34.5 mg/kg/day, the TD50 (monkey, strain Cynomolgus [Macaca fascicularis], both sexes, in feed, site: esophagus, lesion: several types, types named in the paper, dosed 928 weeks, study length 1135 weeks) was 7.71 mg/kg/day and the TD50 (monkey, strain Cynomolgus [Macaca fascicularis], both sexes, in feed, site: esophagus, lesion: squamous-cell carcinoma, dosed 928 weeks, study length 1135 weeks) was 10.5 mg/kg/day. The TD50 (monkey, strain Cynomolgus [Macaca fascicularis], both sexes, in feed, site: esophagus, lesion: squamous-cell papilloma, dosed 928 weeks, study length 1135 weeks) was 29.2 mg/kg/day, the TD50 (monkey, strain Cynomolgus [Macaca fascicularis], both sexes, in feed, site: heart, lesion: rhabdomyoblastoma, dosed 928 weeks, study length 1135 weeks) was 66.3 mg/kg/day and the TD50 (monkey, strain Cynomolgus [Macaca fascicularis], both sexes, in feed, site: oral cavity, lesion: several types, types named in the paper, dosed 928 weeks, study length 1135 weeks) was 2.65 mg/kg/day. The TD50 (monkey, strain Cynomolgus [Macaca fascicularis], both sexes, in feed, site: palate, soft, lesion: squamous-cell carcinoma, dosed 928 weeks, study length 1135 weeks) was 7.95 mg/kg/day, the TD50 (monkey, strain Cynomolgus [Macaca fascicularis], both sexes, in feed, site: pharynx, lesion: squamous-cell carcinoma, dosed 928 weeks, study length 1135 weeks) was 82.2 mg/kg/day and the TD50 (monkey, strain Cynomolgus [Macaca fascicularis], both sexes, in feed, site: skull, lesion: rhabdomyosarcoma, dosed 928 weeks, study length 1135 weeks) was 23.9 mg/kg/day. The TD50 (monkey, strain Cynomolgus [Macaca fascicularis], both sexes, in feed, site: stomach, lesion: adenocarcinoma, dosed 928 weeks, study length 1135 weeks) was 66.3 mg/kg/day, the TD50 (monkey, strain Cynomolgus [Macaca fascicularis], both sexes, in feed, site: tongue, lesion: squamous-cell papilloma, dosed 928 weeks, study length 1135 weeks) was 7.95 mg/kg/day and the TD50 (monkey, strain Cynomolgus [Macaca fascicularis], both sexes, in feed, site: upper gastrointestinal tract, lesion: squamous-cell carcinoma, dosed 928 weeks, study length 1135 weeks) was 4.52 mg/kg/day. For the same compound, the TD50 (monkey, strain Rhesus [Macaca mulatta], both sexes, in feed, site: any site (literature study), lesion: malignant tumor, dosed 928 weeks, study length 1139 weeks) was 6.75 mg/kg/day, the TD50 (monkey, strain Rhesus [Macaca mulatta], both sexes, in feed, site: cheek pouch, lesion: squamous-cell carcinoma, dosed 928 weeks, study length 1139 weeks) was 95.6 mg/kg/day and the TD50 (monkey, strain Rhesus [Macaca mulatta], both sexes, in feed, site: epiglottis, lesion: squamous-cell carcinoma, dosed 928 weeks, study length 1139 weeks) was 42.8 mg/kg/day. It also gave a TD50 (monkey, strain Rhesus [Macaca mulatta], both sexes, in feed, site: esophagus, lesion: squamous-cell carcinoma, dosed 928 weeks, study length 1139 weeks) of 8.2 mg/kg/day, a TD50 (monkey, strain Rhesus [Macaca mulatta], both sexes, in feed, site: gingiva, lesion: squamous-cell carcinoma, dosed 928 weeks, study length 1139 weeks) of 62.6 mg/kg/day and a TD50 (monkey, strain Rhesus [Macaca mulatta], both sexes, in feed, site: larynx, lesion: squamous-cell carcinoma, dosed 928 weeks, study length 1139 weeks) of 95.6 mg/kg/day. The TD50 (monkey, strain Rhesus [Macaca mulatta], both sexes, in feed, site: oral cavity, lesion: several types, types named in the paper, dosed 928 weeks, study length 1139 weeks) was 15.7 mg/kg/day, the TD50 (monkey, strain Rhesus [Macaca mulatta], both sexes, in feed, site: palate, soft, lesion: squamous-cell carcinoma, dosed 928 weeks, study length 1139 weeks) was 102 mg/kg/day and the TD50 (monkey, strain Rhesus [Macaca mulatta], both sexes, in feed, site: pharynx, lesion: squamous-cell carcinoma, dosed 928 weeks, study length 1139 weeks) was 44.2 mg/kg/day. For the same compound, the TD50 (monkey, strain Rhesus [Macaca mulatta], both sexes, in feed, site: stomach, lesion: adenocarcinoma, dosed 928 weeks, study length 1139 weeks) was 42.8 mg/kg/day, the TD50 (monkey, strain Rhesus [Macaca mulatta], both sexes, in feed, site: tongue, lesion: squamous-cell carcinoma, dosed 928 weeks, study length 1139 weeks) was 72.9 mg/kg/day and the TD50 (monkey, strain Rhesus [Macaca mulatta], both sexes, in feed, site: upper gastrointestinal tract, lesion: squamous-cell carcinoma, dosed 928 weeks, study length 1139 weeks) was 7.18 mg/kg/day. For the same compound, the TD50 (mouse, strain C3H (MTV+), males, in drinking water, site: liver, lesion: neoplastic nodule, dosed 30 weeks, study length 54 weeks) was 2.53 mg/kg/day, the TD50 (mouse, strain C3H (MTV+), males, in drinking water, site: lung, lesion: adenoma, dosed 30 weeks, study length 54 weeks) was 0.794 mg/kg/day and the TD50 (mouse, strain C3H (MTV+), males, in drinking water, site: spleen, lesion: hemangioendothelial sarcoma, dosed 30 weeks, study length 54 weeks) was 1.23 mg/kg/day. For the same compound, the TD50 (mouse, strain C3H (MTV+), males, in drinking water, site: stomach, glandular, lesion: adenocarcinoma, dosed 30 weeks, study length 54 weeks) was 6.19 mg/kg/day, the TD50 (rat, strain Fischer 344, males, by gavage, site: forestomach, lesion: one or several types, types not named, dosed 28 weeks, study length 104 weeks) was 0.0927 mg/kg/day and the TD50 (rat, strain Fischer 344, males, by gavage, site: liver, lesion: one or several types, types not named, dosed 28 weeks, study length 104 weeks) was 11.6 mg/kg/day. For the same compound, the TD50 (rat, strain Fischer 344, males, by gavage, site: lung, lesion: several types, types named in the paper, dosed 28 weeks, study length 104 weeks) was 0.357 mg/kg/day and the TD50 (rat, strain Fischer 344, males, by gavage, site: nervous system, lesion: several types, types named in the paper, dosed 28 weeks, study length 104 weeks) was 2.03 mg/kg/day.

For CCNC(=O)Nc1ncc([N+](=O)[O-])s1, the TD50 (mouse, strain B6C3F1, females, in feed, site: any site (literature study), lesion: several types, types named in the paper, dosed 94 weeks, study length 104 weeks) was 1400 mg/kg/day (inactive), the TD50 (mouse, strain B6C3F1, females, in feed, site: liver, lesion: hepatocellular adenoma + hepatocellular carcinoma + neoplastic nodule, dosed 94 weeks, study length 104 weeks) was 2720 mg/kg/day and the TD50 (mouse, strain B6C3F1, males, in feed, site: any site (literature study), lesion: several types, types named in the paper, dosed 94 weeks, study length 104 weeks) was 4750 mg/kg/day. For the same compound, the TD50 (mouse, strain B6C3F1, males, in feed, site: liver, lesion: hepatocellular adenoma + hepatocellular carcinoma + neoplastic nodule, dosed 94 weeks, study length 104 weeks) was 758 mg/kg/day, the TD50 (mouse, strain B6C3F1, males, in feed, site: liver, lesion: hepatocellular adenoma + hepatocellular carcinoma, dosed 94 weeks, study length 104 weeks) was 758 mg/kg/day and the TD50 (mouse, strain B6C3F1, males, in feed, site: liver, lesion: hepatocellular carcinoma, dosed 94 weeks, study length 104 weeks) was 1900 mg/kg/day. For the same compound, the TD50 (rat, strain Fischer 344, females, in feed, site: any site (literature study), lesion: several types, types named in the paper, dosed 94 weeks, study length 104 weeks) was 175 mg/kg/day, the TD50 (rat, strain Fischer 344, females, in feed, site: mammary gland + skin + subcutaneous tissue, lesion: cystadenoma, NOS + fibroadenoma, dosed 94 weeks, study length 104 weeks) was 131 mg/kg/day and the carcinogen call (rat, strain Fischer 344, males, in feed, site: any site (literature study), lesion: several types, types named in the paper, dosed 94 weeks, study length 104 weeks) was “negative (inactive)”. For the same compound, the TD50 (rat, strain Fischer 344, males, in feed, site: liver, lesion: hepatocellular adenoma + hepatocellular carcinoma + neoplastic nodule, dosed 94 weeks, study length 104 weeks) was 508 mg/kg/day.

CCOC(=O)[C@H](CCc1ccccc1)N[C@@H](C)C(=O)N1Cc2ccccc2C[C@H]1C(=O)O was tested, and the TD50 (mouse, strain B6C3F1, females, by gavage, site: any site (literature study), lesion: several types, types named in the paper, dosed 104 weeks, study length 104 weeks) was 8160 mg/kg/day (inactive), the carcinogen call (mouse, strain B6C3F1, females, by gavage, site: liver, lesion: hepatocellular adenoma, dosed 104 weeks, study length 104 weeks) was “negative (inactive)” and the TD50 (mouse, strain B6C3F1, females, by gavage, site: liver, lesion: hepatocellular carcinoma, dosed 104 weeks, study length 104 weeks) was 966 mg/kg/day (inactive). The TD50 (mouse, strain B6C3F1, females, by gavage, site: lung, lesion: adenoma, dosed 104 weeks, study length 104 weeks) was 5070 mg/kg/day (inactive), the TD50 (mouse, strain B6C3F1, females, by gavage, site: pituitary gland, lesion: adenoma, dosed 104 weeks, study length 104 weeks) was 128 mg/kg/day (inactive) and the TD50 (mouse, strain B6C3F1, males, by gavage, site: any site (literature study), lesion: several types, types named in the paper, dosed 104 weeks, study length 104 weeks) was 221 mg/kg/day (inactive). The TD50 (mouse, strain B6C3F1, males, by gavage, site: liver, lesion: hepatocellular adenoma, dosed 104 weeks, study length 104 weeks) was 623 mg/kg/day (inactive), the TD50 (mouse, strain B6C3F1, males, by gavage, site: liver, lesion: hepatocellular carcinoma, dosed 104 weeks, study length 104 weeks) was 1640 mg/kg/day (inactive) and the TD50 (mouse, strain B6C3F1, males, by gavage, site: lung, lesion: adenoma, dosed 104 weeks, study length 104 weeks) was 2790 mg/kg/day (inactive). For the same compound, the TD50 (mouse, strain B6C3F1, males, by gavage, site: lung, lesion: carcinoma, dosed 104 weeks, study length 104 weeks) was 2810 mg/kg/day (inactive), the carcinogen call (rat, strain Wistar, females, by gavage, site: any site (literature study), lesion: several types, types named in the paper, dosed 104 weeks, study length 104 weeks) was “negative (inactive)” and the carcinogen call (rat, strain Wistar, females, by gavage, site: liver, lesion: several types, types named in the paper, dosed 104 weeks, study length 104 weeks) was “negative (inactive)”. For the same compound, the carcinogen call (rat, strain Wistar, males, by gavage, site: any site (literature study), lesion: several types, types named in the paper, dosed 104 weeks, study length 104 weeks) was “negative (inactive)” and the carcinogen call (rat, strain Wistar, males, by gavage, site: liver, lesion: several types, types named in the paper, dosed 104 weeks, study length 104 weeks) was “negative (inactive)”.

For O=C(CCl)c1ccccc1, the TD50 (mouse, strain B6C3F1, females, inhaled, site: any site (literature study), lesion: several types, types named in the paper, dosed 103 weeks, study length 105 weeks) was 4.31 mg/kg/day (inactive), the TD50 (mouse, strain B6C3F1, females, inhaled, site: lung, lesion: alveolar/bronchiolar adenoma + alveolar/bronchiolar carcinoma, dosed 103 weeks, study length 105 weeks) was 33.4 mg/kg/day and the TD50 (mouse, strain B6C3F1, males, inhaled, site: any site (literature study), lesion: several types, types named in the paper, dosed 103 weeks, study length 106 weeks) was 2.69 mg/kg/day (inactive). It also gave a TD50 (mouse, strain B6C3F1, males, inhaled, site: liver, lesion: hepatocellular adenoma + hepatocellular carcinoma + neoplastic nodule, dosed 103 weeks, study length 106 weeks) of 5.24 mg/kg/day, a TD50 (mouse, strain B6C3F1, males, inhaled, site: lung, lesion: alveolar/bronchiolar adenoma + alveolar/bronchiolar carcinoma, dosed 103 weeks, study length 106 weeks) of 10.4 mg/kg/day and a TD50 (rat, strain Fischer 344, females, inhaled, site: any site (literature study), lesion: several types, types named in the paper, dosed 103 weeks, study length 105 weeks) of 0.859 mg/kg/day. It also gave a TD50 (rat, strain Fischer 344, females, inhaled, site: mammary gland, lesion: adenocarcinoma + adenoma + fibroadenoma, dosed 103 weeks, study length 105 weeks) of 0.224 mg/kg/day, a TD50 (rat, strain Fischer 344, females, inhaled, site: mammary gland, lesion: adenoma + fibroadenoma, dosed 103 weeks, study length 105 weeks) of 0.208 mg/kg/day and a TD50 (rat, strain Fischer 344, females, inhaled, site: mammary gland, lesion: fibroadenoma, dosed 103 weeks, study length 105 weeks) of 0.211 mg/kg/day. The carcinogen call (rat, strain Fischer 344, males, inhaled, site: any site (literature study), lesion: several types, types named in the paper, dosed 103 weeks, study length 105 weeks) was “negative (inactive)”.
